Measured values reported in paper PMC12892976, “Alkylation-based optimization of antifungal FPPS inhibitors yields a potent, broad-spectrum lipophilic zoledronate derivative” (mBio, 2025).

Columns and labels:
Aspergillus felis = test: checkerboard drug interaction (FICI, MICc); format: cell-based; conditions: with VOR;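 also: simplified diagonal checkerboard screen pairing antifungals with FPPS inhibitors, FICI calculated under the Loewe additivity model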
Procedure: (§1) Drug interactions between antifungals and FPPS inhibitors were investigated using a simplified checkerboard diagonal screening method ([45]). […] FICIs were determined according to the Loewe additivity model ([17]).

Nannizzia nana = test: MIC broth microdilution (CLSI); format: cell-based; conditions: Nannizzia nana R-133
Procedure: (§2) Antifungal susceptibility was determined by broth microdilution according to the CLSI guidelines described in M27-Ed4 ([16]).

Fusarium solani = test: MIC broth microdilution (CLSI); conditions: Fusarium solani 04-16-056-1862
Procedure: as §2

Aspergillus terreus = test: checkerboard drug interaction (FICI, MICc); format: cell-based;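 also: simplified diagonal checkerboard screen pairing antifungals with FPPS inhibitors, FICI derived by the Loewe additivity model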
Procedure: as §1

[1] = test system: Aspergillus frankstonensis; test: MIC broth microdilution (CLSI); format: cell-based; conditions: Aspergillus frankstonensis DTO 341-F3
Procedure: as §2

Lomentospora prolificans = test: checkerboard drug interaction (FICI, MICc);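 also: simplified diagonal checkerboard screen pairing antifungals with FPPS inhibitors, FICI calculated under the Loewe additivity model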
Procedure: as §1

Aspergillus udagawae = test: checkerboard drug interaction (FICI, MICc); format: cell-based;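 also: simplified diagonal checkerboard screen pairing antifungals with FPPS inhibitors, FICI calculated using the Loewe additivity model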
Procedure: as §1

[2] = test system: Cryptococcus deneoformans; test: checkerboard drug interaction (FICI, MICc); format: cell-based;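 also: simplified diagonal checkerboard screen pairing antifungals with FPPS inhibitors, FICI calculated under the Loewe additivity model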
Procedure: as §1

Paraphyton cookei = test: checkerboard drug interaction (FICI, MICc);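 also: simplified diagonal checkerboard screen pairing an antifungal with an FPPS inhibitor, FICI computed under the Loewe additivity model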
Procedure: as §1

[3] = test system: Cryptococcus bacillisporus; test: checkerboard drug interaction (FICI, MICc); format: cell-based;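 also: interaction of antifungals with FPPS inhibitors assessed by a simplified diagonal checkerboard screen, with FICI computed under the Loewe additivity model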
Procedure: as §1

Epidermophyton floccosum = test: checkerboard drug interaction (FICI, MICc);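 also: simplified diagonal checkerboard screen pairing antifungals with FPPS inhibitors, FICI calculated under the Loewe additivity model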
Procedure: as §1

Aspergillus lentulus = test: checkerboard drug interaction (FICI, MICc); format: cell-based;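 also: simplified diagonal checkerboard screen pairing antifungals with FPPS inhibitors, with the interaction index calculated under the Loewe additivity model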
Procedure: as §1

Aspergillus parafelis = test: MIC broth microdilution (CLSI); format: cell-based; conditions: Aspergillus parafelis DTO 341-F2
Procedure: as §2

Scedosporium apiospermum = test: checkerboard drug interaction (FICI, MICc); format: cell-based;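 also: simplified diagonal checkerboard screen of antifungal plus FPPS inhibitor pairs, with FICI computed under the Loewe additivity model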
Procedure: as §1

CCCCCCCCCCn1cc[n+](CC(O)(P(=O)(O)O)P(=O)(O)O)c1 [10-ZOL, Decyl-zoledronate]
bisphosphonate MICc (Aspergillus felis): 1
MIC / MEC (Nannizzia nana): 1 µg/mL
MIC / MEC (Fusarium solani): 4 µg/mL
FICI (Aspergillus terreus; 5FC:10-ZOL): 1.5
FICI (Aspergillus terreus; CAS:10-ZOL): 3
FICI (Aspergillus terreus; FLC:10-ZOL): 0.53
FICI (Aspergillus terreus; ITR:10-ZOL): 1
FICI (Aspergillus terreus; KET:10-ZOL): 1.5
FICI (Aspergillus terreus; VOR:10-ZOL): 1.5
bisphosphonate MICc (Aspergillus terreus; with 5FC): 0.25
bisphosphonate MICc (Aspergillus terreus; with AMB): 0.5
bisphosphonate MICc (Aspergillus terreus; with CAS): 1
bisphosphonate MICc (Aspergillus terreus; with FLC): 0.25
bisphosphonate MICc (Aspergillus terreus; with ITR): 0.25
bisphosphonate MICc (Aspergillus terreus; with KET): 0.25
bisphosphonate MICc (Aspergillus terreus; with VOR): 0.25
MIC / MEC [1]: 1 µg/mL
FICI (Lomentospora prolificans; CAS:10-ZOL): ≥4
FICI (Lomentospora prolificans; ITR:10-ZOL): 0.5
bisphosphonate MICc (Lomentospora prolificans; with 5FC): 1
bisphosphonate MICc (Lomentospora prolificans; with AMB): 2
bisphosphonate MICc (Lomentospora prolificans; with CAS): 0.5
bisphosphonate MICc (Lomentospora prolificans; with FLC): 1
bisphosphonate MICc (Lomentospora prolificans; with ITR): 0.5
bisphosphonate MICc (Lomentospora prolificans; with KET): 1
bisphosphonate MICc (Lomentospora prolificans; with VOR): 1
FICI (Aspergillus udagawae; 5FC:10-ZOL): 1
FICI (Aspergillus udagawae; CAS:10-ZOL): 1
FICI (Aspergillus udagawae; FLC:10-ZOL): 1.02
FICI (Aspergillus udagawae; ITR:10-ZOL): 0.5
FICI (Aspergillus udagawae; VOR:10-ZOL): 1.03
bisphosphonate MICc (Aspergillus udagawae; with 5FC): 0.5
bisphosphonate MICc (Aspergillus udagawae; with AMB): 0.5
bisphosphonate MICc (Aspergillus udagawae; with CAS): 0.5
bisphosphonate MICc (Aspergillus udagawae; with FLC): 1
bisphosphonate MICc (Aspergillus udagawae; with ITR): 0.25
bisphosphonate MICc (Aspergillus udagawae; with KET): 0.5
bisphosphonate MICc (Aspergillus udagawae; with VOR): 1
FICI ([2]; FLC:10-ZOL): 1
FICI ([2]; ITR:10-ZOL): 1.55
FICI ([2]; KET:10-ZOL): 0.61
FICI ([2]; VOR:10-ZOL): 1.3
bisphosphonate MICc ([2]; with 5FC): 0.5
bisphosphonate MICc ([2]; with AMB): 0.125
bisphosphonate MICc ([2]; with CAS): 1
bisphosphonate MICc ([2]; with FLC): 0.5
bisphosphonate MICc ([2]; with ITR): 0.5
bisphosphonate MICc ([2]; with KET): 0.125
bisphosphonate MICc ([2]; with VOR): 0.25
FICI (Paraphyton cookei; 5FC:10-ZOL): ≥4
FICI (Paraphyton cookei; AMB:10-ZOL): 1.5
FICI (Paraphyton cookei; CAS:10-ZOL): 1.5
FICI (Paraphyton cookei; FLC:10-ZOL): 0.53
FICI (Paraphyton cookei; ITR:10-ZOL): 0.53
FICI (Paraphyton cookei; VOR:10-ZOL): 0.9
bisphosphonate MICc (Paraphyton cookei; with 5FC): 0.25
bisphosphonate MICc (Paraphyton cookei; with AMB): 0.25
bisphosphonate MICc (Paraphyton cookei; with CAS): 0.25
bisphosphonate MICc (Paraphyton cookei; with FLC): 0.25
bisphosphonate MICc (Paraphyton cookei; with ITR): 0.25
bisphosphonate MICc (Paraphyton cookei; with KET): 0.25
bisphosphonate MICc (Paraphyton cookei; with VOR): 0.125
FICI ([3]; ITR:10-ZOL): 0.61
bisphosphonate MICc ([3]; with 5FC): 1
bisphosphonate MICc ([3]; with AMB): 0.125
bisphosphonate MICc ([3]; with CAS): 1
bisphosphonate MICc ([3]; with FLC): 0.125
bisphosphonate MICc ([3]; with ITR): 0.125
bisphosphonate MICc ([3]; with KET): 0.125
bisphosphonate MICc ([3]; with VOR): 0.125
FICI (Epidermophyton floccosum; 5FC:10-ZOL): 1.5
FICI (Epidermophyton floccosum; AMB:10-ZOL): 2
bisphosphonate MICc (Epidermophyton floccosum; with 5FC): 0.5
bisphosphonate MICc (Epidermophyton floccosum; with AMB): 0.5
bisphosphonate MICc (Epidermophyton floccosum; with CAS): 0.25
bisphosphonate MICc (Epidermophyton floccosum; with FLC): 0.25
bisphosphonate MICc (Epidermophyton floccosum; with ITR): 0.125
bisphosphonate MICc (Epidermophyton floccosum; with KET): 1
bisphosphonate MICc (Epidermophyton floccosum; with VOR): 0.25
FICI (Aspergillus lentulus; 5FC:10-ZOL): ≥4
FICI (Aspergillus lentulus; CAS:10-ZOL): 2
FICI (Aspergillus lentulus; FLC:10-ZOL): 1.02
bisphosphonate MICc (Aspergillus lentulus; with 5FC): 1
bisphosphonate MICc (Aspergillus lentulus; with AMB): 2
bisphosphonate MICc (Aspergillus lentulus; with CAS): 2
bisphosphonate MICc (Aspergillus lentulus; with FLC): 2
bisphosphonate MICc (Aspergillus lentulus; with ITR): 1
bisphosphonate MICc (Aspergillus lentulus; with KET): 1
bisphosphonate MICc (Aspergillus lentulus; with VOR): 1
MIC / MEC (Aspergillus parafelis): 4 µg/mL
FICI (Scedosporium apiospermum; 5FC:10-ZOL): 2.25
FICI (Scedosporium apiospermum; KET:10-ZOL): 0.53
FICI (Scedosporium apiospermum; VOR:10-ZOL): 0.53
bisphosphonate MICc (Scedosporium apiospermum; with 5FC): 1
bisphosphonate MICc (Scedosporium apiospermum; with AMB): 2
bisphosphonate MICc (Scedosporium apiospermum; with CAS): 1
bisphosphonate MICc (Scedosporium apiospermum; with FLC): 1
bisphosphonate MICc (Scedosporium apiospermum; with ITR): 0.25
bisphosphonate MICc (Scedosporium apiospermum; with KET): 0.125
bisphosphonate MICc (Scedosporium apiospermum; with VOR): 0.125
